In patent publication US6630572B1, “Thrombin derived polypeptides: compositions and methods for use” (The Board of Regents, University of Texas Syatems, priority 1986, dated 2003):
Ends that are not written are not given here.

Columns and labels:
[1] = system: high-affinity thrombin receptor; experiment: Competition for specific [125I]-alpha-thrombin binding to ME cells; design: species or system mouse; details: for fold higher concentration than p508-530 required for 30% inhibition of [125I]-alpha-thrombin binding: ME cells; for Conc. at Maximal % Inhibition / Concentration Required for 30% Inhibition / Maximal % Inhibition: [125I]-alpha-thrombin (1 nM), quiescent ME cells; for Concentration Required for 30% Inhibition / Maximal % Inhibition: 23° C.; for Maximal % Inhibition: at the conc. printed below the value
Method: Specific techniques whereby the competitive binding studies were performed are set out below. Human alpha-thrombin was iodinated in the presence of benzamidine (an active-site competitive inhibitor), lactoperoxidase, and Na[^125I]. […] These iodinated preparations retained approximately 80% of their fibrinogen clotting activity. The ability of the synthetic peptides to compete for specific [^125I]-alpha-thrombin binding to fibroblasts was measured on nonproliferating, mitogenically responsive cultures in 24 well plates (Falcon) at a cell density of approximately 5×10^4 cells/cm^2 as previously described (Carney and Cunningham, Cell, 15:1341-1349 (1978)). The medium on the cells was changed to binding medium (serum-free DV medium containing 0.5% (w/v) bovine serum albumin buffered with 15 mM HEPES at pH 7.0). The cells were equilibrated at 23° C. for 30 minutes, and the medium was changed to binding medium containing [^125I]-alpha-thrombin (10 ng/ml) with the indicated concentrations of the peptides. After 2 hours at 23° C., the assay was terminated by quickly rinsing the cells four times with ice-cold PBS. The cells were dissolved in 1 ml of 0.5 N NaOH and the total radioactivity was measured using a Beckman gamma counter. Nonspecific binding was measured as the radioactivity bound to cultures after incubation in binding medium containing a 100-fold excess of unlabeled alpha-thrombin. Specific binding was calculated by subtracting nonspecific binding from total radioactivity bound to cultures. […] Scatchard analysis of the direct binding of [^125I]-labeled p508-530 indicated a KD of approximately 6×10^−8 M (data not shown). […] Various concentrations of peptides and [^125I]-alpha-thrombin (1 nM) were incubated with quiescent ME cells for […] at 23° C. Specific binding of [^125I]-alpha-thrombin was defined as described in Example 3.

ME cells = experiment: [3H]-thymidine incorporation (DNA synthesis) in quiescent ME cells; format: cell-based, mouse; details: for inhibition of alpha-thrombin stimulated DNA synthesis: 625 nM peptide, FIG. 7
Method: Primary cultures of fibroblasts were prepared from 9- to 13-day old embryos of NIH-swiss outbred mice as described by Carney and Cunningham, Cell, 15:1341-1349, (1978). NIL cells, an established strain of hamster fibroblasts, were maintained as stock cultures and subcultured every four days. All cells were grown in Dulbecco-Vogt modified Eagle's (DV) medium supplemented with 10% (v/v) bovine calf serum (CS), in a humidified atmosphere of 5% CO2 in air at 37° C. Quiescent cultures were prepared by subculturing stock cells from 100 mm dishes, using 0.05% (w/v) trypsin and 0.02% EDTA (w/v) in phosphate-buffered saline (PBS) and plating them in 24-well culture plates in DV medium supplemented with 10% (v/v) CS at 6×10^4 cells/cm^2. After allowing the cells to attach overnight, the medium was removed and the cells were rinsed with DV medium containing no serum. The cells were incubated in this serum-free medium for 48 hours before the indicated experiments. […] The effects of the synthetic peptides on DNA synthesis were determined by measuring the incorporation of methyl-[^3H]-thymidine (TdR, ICN Pharmaceuticals, Irvine, Calif.) during a 2 hour incubation generally from 22 hours after addition of peptides and/or thrombin (Stiernberg et al., J. Cell Physiol., 120:209-285 (1984)). After incubation, the cells were extracted and rinsed with ice-cold 10% (w/v) trichloroacetic acid (TCA). The acid precipitable material was dissolved overnight in 0.5 ml 0.5 N KOH at 23° C. HCl (1 N), 0.25 ml, was added and the solution was counted in 10 ml of RediSolv-HPb (Beckman Instruments, Houston, Tex.) scintillation fluid. The present inventors first tested the ability of p508-530 to stimulate DNA synthesis in non-proliferating cultures of ME or NIL cells. […] In order to explain the mechanism by which p517-520 was able to inhibit thrombin-mediated mitogenesis, the inventors measured the ability of increasing concentrations of alpha-thrombin to stimulate DNA synthesis in cultures to which a constant concentration (625 nM) of p517-520 had been added (FIG. 7). […]

NIL cells = experiment: [3H]-thymidine incorporation (DNA synthesis) in quiescent NIL cells; format: cell-based, hamster; details: for effect on alpha-thrombin stimulated DNA synthesis: quiescent NIL cells, increasing peptide concentrations, 2 and 4 nM alpha-thrombin, FIG. 6
Method: Primary cultures of fibroblasts were prepared from 9- to 13-day old embryos of NIH-swiss outbred mice as described by Carney and Cunningham, Cell, 15:1341-1349, (1978). NIL cells, an established strain of hamster fibroblasts, were maintained as stock cultures and subcultured every four days. All cells were grown in Dulbecco-Vogt modified Eagle's (DV) medium supplemented with 10% (v/v) bovine calf serum (CS), in a humidified atmosphere of 5% CO2 in air at 37° C. Quiescent cultures were prepared by subculturing stock cells from 100 mm dishes, using 0.05% (w/v) trypsin and 0.02% EDTA (w/v) in phosphate-buffered saline (PBS) and plating them in 24-well culture plates in DV medium supplemented with 10% (v/v) CS at 6×10^4 cells/cm^2. After allowing the cells to attach overnight, the medium was removed and the cells were rinsed with DV medium containing no serum. The cells were incubated in this serum-free medium for 48 hours before the indicated experiments. […] The effects of the synthetic peptides on DNA synthesis were determined by measuring the incorporation of methyl-[^3H]-thymidine (TdR, ICN Pharmaceuticals, Irvine, Calif.) during a 2 hour incubation generally from 22 hours after addition of peptides and/or thrombin (Stiernberg et al., J. Cell Physiol., 120:209-285 (1984)). After incubation, the cells were extracted and rinsed with ice-cold 10% (w/v) trichloroacetic acid (TCA). The acid precipitable material was dissolved overnight in 0.5 ml 0.5 N KOH at 23° C. HCl (1 N), 0.25 ml, was added and the solution was counted in 10 ml of RediSolv-HPb (Beckman Instruments, Houston, Tex.) scintillation fluid. The present inventors first tested the ability of p508-530 to stimulate DNA synthesis in non-proliferating cultures of ME or NIL cells. […] However, in combination with 2 nM alpha-thrombin, 0.1 uM p508-530 stimulated a 6- or greater than 2-fold increase in incorporation of [^3H]-thymidine into DNA in ME cells when compared to parallel cultures left untreated or treated with alpha-thrombin alone, respectively (FIG. 4A). A similar mitogenic stimulation was also observed in NIL hamster cells, although it required a slightly higher concentration of thrombin and peptides (FIG. 4B). […] With NIL cells, a similar correlation was observed between the mitogenic concentrations of p508-530 and the concentrations required to inhibit thrombin binding, although at higher levels than required with ME cells. […] It was predicted, therefore, that if p508-530 was generating a receptor occupancy-related signal, its addition to cells in combination with PMA should stimulate mitogenesis. […] This stimulation occurred at approximately the same concentration of peptide as that required to stimulate DNA synthesis in the presence of low concentrations of alpha-thrombin. […]

fibroblast = details: compared with fibronectin-specific peptides; cited from earlier work

Substance	mitogenesis (summary statement) (NIL cells)	effect on alpha-thrombin stimulated DNA synthesis (NIL cells)	fold higher concentration than p508-530 required for 30% inhibition of [125I]-alpha-thrombin binding [1] [fold]	Conc. at Maximal % Inhibition [1]	Concentration Required for 30% Inhibition [1] [nM]	Maximal % Inhibition [1] [%]	promotion of fibroblast attachment (fibroblast)	also measured
Arg-Gly-Ala-Ser (RGAS; printed: Arg-Gly-Ala-Ser) [reference compound]	–	–	–	–	–	–	–	competition with [125I]-alpha-thrombin for binding ([1]; concentration of 1.3 uM): did not compete
Arg-Gly-Asp-Ala (RGDA; Fragment of human prothrombin) [p517-520]	without inducing mitogenesis	inhibited DNA synthesis	50	(2.7 uM)	300	50	comparable to that induced by fibronectin-specific peptides	molar excess of peptide required for inhibition of alpha-thrombin stimulation (ME cells): 500-1000 fold; inhibition of alpha-thrombin stimulated DNA synthesis (ME cells; 0.8 nM alpha-thrombin): approximately 75%; inhibition of alpha-thrombin stimulated DNA synthesis (ME cells; 13.0 nM alpha-thrombin): ~35%
DACEGDSGGPFV [p519-530, peptide representing residues 519 to 530 of the B-chain region of human prothrombin]	retains the ability to mediate mitogenesis but to a much lesser degree than p508-530	enhanced DNA synthesis	33	(800 Nm)	200	51	–	–
p510-526: peptide representing 510-526 of human prothrombin (TKPDEGKRGDACEGDSG; Fragment of human prothrombin)	–	–	–	–	–	–	comparable to that induced by fibronectin-specific peptides	–
p516-522: peptide representing 516-522 of human prothrombin (KRGDACE; Fragment of human prothrombin)	–	–	–	–	–	–	comparable to that induced by fibronectin-specific peptides	–
